# Reference: US6391599B1, “Sham-sensitive terminal oxidase gene from xylose-fermenting yeast” (priority 2000, dated 2002)
# Entries after “also recorded” stand apart in the source; their conditions may differ.
# Tests used:
# Type in all cases: cell-based, Pichia stipitis
# Set-up in all cases: key to Rotenone sensitivity (rotenone-insensitive respiration): +: Cells sustained rotenone-insensitive respiration; −: Cells could not sustain rotenone-insensitive respiration
# [1] = system: P. stipitis FPL-Shi21 (cyc1-Δ); experiment: Respiration measurement (oxygen uptake) with inhibitor; details: for Effect on respiration: FPL-Shi21 (cyc1Δ); for Rotenone sensitivity (rotenone-insensitive respiration): 0.1 mM rotenone, FPL-Shi21; for Sensitivity of respiration to rotenone (in words): cyc1Δ mutant
# Experimental: (§1) P. stipitis strains were grown overnight in YNBUP-xylose (2%) medium under aerobic conditions. Then half of the overnight-grown cells were transferred to 25 mL fresh medium to grow for 16 h to mid-log phase under the same conditions. The cells were harvested and washed in an assay buffer containing 20 mM potassium phosphate (pH7.0) and 5 mM magnesium chloride. The cells were resuspended in 500 μL of the same buffer for assays. Oxygen uptake was measured by using a Clark type of electrode (Yellow Spring Instrument). The assay was performed in an assay buffer containing 20 mM potassium phosphate, 5 mM magnesium chloride, plus xylose or glucose (2%) as the substrate at 30° C. The assay buffer was saturated with air before the experiment. Ten to fifty μL of cells were injected into the assay chamber and the total reaction volume was 2 mL. Antimycin A, SHAM or rotenone was dissolved in dimethyl formamide while potassium cyanide was dissolved in water. Inhibitor solution was injected into the chamber after adding the cells.
# [2] = system: P. stipitis FPL-Shi31 (sto1-Δ); experiment: as above; details: for Rotenone sensitivity (rotenone-insensitive respiration): 0.1 mM rotenone, FPL-Shi31; for Sensitivity of respiration to rotenone (in words): sto1Δ mutant
# Experimental: as §1
# [3] = system: P. stipitis wild-type CBS 6054; experiment: Respiration measurement (oxygen uptake, Clark type electrode) with inhibitor; details: 0.1 mM rotenone
# Experimental: as §1
# [4] = system: P. stipitis FPL-UC7 (ura3-3); experiment: Respiration measurement (oxygen uptake) with inhibitor; details: for Rotenone sensitivity (rotenone-insensitive respiration): 0.1 mM rotenone
# Experimental: as §1
compound,measurement,setting,value
antimycin A,Effect on respiration,[1],insensitivity
same,Effect on respiration,"[2]; 10 μM antimycin A, sto1Δ mutant cells",respiration dropped to zero
C=C(C)[C@H]1Cc2c(ccc3c2O[C@@H]2COc4cc(OC)c(OC)cc4[C@@H]2C3=O)O1 [rotenone],Rotenone sensitivity (rotenone-insensitive respiration),"[3]; glucose-grown cells, CBS 6054",−
same,Sensitivity of respiration to rotenone (in words),"[3]; glucose-grown cells, CBS 6054",could not sustain any respiration; also recorded: rotenone-sensitive
same,Time after injection until cells died and floated in the chamber,"[3]; glucose-grown cells, CBS 6054",≤ 1 min
same,"Oxygen consumption rate, +rotenone",[3]; xylose-grown cells,4.6 ± 0.2 µM/mg/h
same,Rotenone sensitivity (rotenone-insensitive respiration),"[3]; xylose-grown cells, CBS 6054",+
same,Sensitivity of respiration to rotenone (in words),"[3]; xylose-grown cells, CBS 6054",respiration was sustained; also recorded: insensitivity to rotenone
same,Rotenone sensitivity (rotenone-insensitive respiration),[1]; glucose-grown cells,−
same,Rotenone sensitivity (rotenone-insensitive respiration),[1]; xylose-grown cells,−
same,Sensitivity of respiration to rotenone (in words),[1]; glucose-grown cells,rotenone-sensitive
same,Sensitivity of respiration to rotenone (in words),[1]; xylose-grown cells,rotenone-sensitive
same,Rotenone sensitivity (rotenone-insensitive respiration),[4]; glucose-grown cells,−
same,Rotenone sensitivity (rotenone-insensitive respiration),[4]; xylose-grown cells,+
same,Sensitivity of respiration to rotenone (in words),[4]; glucose-grown cells,rotenone-sensitive
same,Sensitivity of respiration to rotenone (in words),[4]; xylose-grown cells,insensitivity to rotenone
same,Rotenone sensitivity (rotenone-insensitive respiration),[2]; glucose-grown cells,−
same,Rotenone sensitivity (rotenone-insensitive respiration),[2]; xylose-grown cells,−
same,Sensitivity of respiration to rotenone (in words),[2]; glucose-grown cells,rotenone-sensitive
same,Sensitivity of respiration to rotenone (in words),[2]; xylose-grown cells,rotenone-sensitive
"O=C(NO)c1ccccc1O [SHAM, salicyl hydroxymate]",Effect on respiration,[1],completely blocked
same,Effect on respiration trace,"[2]; 4 mM SHAM, sto1Δ cells pre-grown on YNB-xylose (2%)",did not show any change
